From patent US7713923B2, “Self-assembling peptides incorporating modifications and methods of use thereof” (Massachusetts Institute of Technology, priority 2003, dated 2010)

What was measured:
[1] = Gel formation by visual observation; type: physicochemical; conditions: 1% solution, standing overnight at room temperature, no PBS
Method: The peptides used in the examples are based on the self-assembling peptide RAD16-I. The peptide was modified to include a variety of peptide motifs previously identified as mediating various biological activities. Physicochemical and structural properties of the peptides were assessed using a variety of techniques. Peptide solubility in aqueous solution was tested. The ability of the peptides to self-assemble into higher order structures was examined. In particular, the ability of the peptides to form various secondary structures (e.g., β-sheet) was determined using circular dichroism. The ability of the peptides to self-assemble into nanofibers was evaluated using atomic force microscopy (AFM). Gel formation was assessed by visual observation and rheology.
Gel formation. Each peptide solution at 1% was used to assess hydrogel formation. […] For all the soluble peptides, gel formation was readily observed upon the addition of equal volumes of phosphate buffered saline (PBS).

[2] = Circular dichroism (secondary structure); type: physicochemical; conditions: 25 μM peptide in water, room temperature, 195-250 nm
Method: Circular dichroism (DC). CD spectra were gathered on an Aviv model 202 spectropolarimeter. Samples were prepared by diluting stock peptide solutions in water (0.5%) to a working concentration of 25 μM. Samples were analysed at room temperature in a quartz cuvette with a path length of 0.3 cm and in the wavelength range 195-250 nm.
Circular dichroism. CD spectra were obtained for each peptide sequence to assess its secondary structure. The secondary structure identifies ordered structures within a polypeptide such as α-helices and β-sheets. […] (Havel, 1996).

[3] = Rheometry (dynamic frequency and time sweep); type: physicochemical
Method: Rheometry. Rheological assays were performed on a 50 mm parallel plate ARES strain controlled rheometer (Rheometric Scientific, NJ). Samples were dissolved in deionized water at a final concentration of 2.9 mM and sonicated for one hour the day prior to the analysis. A volume of 1 ml was loaded on the lower plate, and the upper plate was set to a gap size between 0.4-0.45 mm. Dynamic frequency sweep tests were performed in a range of frequencies from 100 to 0.1 radis. After the test, PBS was added around the lower plate in order to promote gelation. The peptide was allowed to gel for 10 min at room temperature before the test was performed once again. After a dynamic frequency sweep test, the behavior of samples over time was tested. A dynamic time sweep test was performed at 10 rad/s for 5 min.
Rheology. A dynamic strain sweep was first performed on RAD16-I to set the linear viscoelastic region of the test and to select a fixed strain for the dynamic frequency sweep tests (FIG. 19). This linear viscoelastic range is defined by constant moduli, G′ and G″. It is important to select a strain within this range to obtain reliable results (Schramm, 1994). The strain selected was 0.01 (dimensionless) and was applied in all assays.

[4] = tested on: human aortic endothelial cells (HAEC); experiment: HAEC attachment assay on peptide scaffolds; type: cell-based; conditions: after one hour; modified peptides as 9:1 blends with RAD16-I
Method: Meanwhile, human aortic endothelial cells (HAEC) (CC-2535, Cambrex, MD) that had been maintained under standard culture conditions (passage 5-6) were harvested at 80% confluence using trypsin and loaded on top of the preformed peptide scaffolds at a cell density of 8×10^4 cells/cm^2 and cultured in the cell culture incubator at 37° C. with 5% CO2. Cell attachment assays were performed one hour after the initial cell loading. To perform the assays, the covering media was removed, and unattached cells were counted on a hematocytometer. Cell counting was performed by mechanically disrupting the scaffold containing cells by pipetting up and down and then counting cells on a hematocytometer after performing Trypan blue (T 9906, Sigma, MO) exclusion assay staining to assess cell viability. In some experiments, for comparison, EC were cultured on inserts coated with Matrigel or collagen (1.5 mg/ml, i.e. 0.15%) according to standard protocols.

[5] = tested on: human aortic endothelial cells (HAEC); experiment: NO release determination (Griess method); type: cell-based; conditions: nitrite in culture supernatant; RAD16-I 100%, others 9:1 blend
Method: NO release determination. Nitric oxide (NO) release was estimated by measuring nitrites (NOx) by the Griess method. Briefly, the media was replaced after the third day of culture by new media without fetal bovine serum (FBS) or ascorbic acid. The next day, the media was used to analyze NO release using a commercially available kit (482702, Calbiochem, CA) following the manufacturer instructions. Each condition was tested in triplicate.

[6] = tested on: human aortic endothelial cells (HAEC); experiment: Western blot of laminin 1 and collagen IV production by HAEC; type: cell-based; conditions: compared to conventional 2D tissue culture plates
From the text: Western blots. Harvested HAEC for each culture condition were counted and lysed with sample buffer (NP0007, Invitrogen, CA) containing 2% (v/v) β-mercaptoethanol and a cocktail of protease inhibitors (1836153, Complete Mini, Roche, Penzberg, Germany) to avoid proteolysis. Cell lysates were run on a 10% PAGE system in MOPS buffer (NP0301, NP0001 Invitrogen, CA), and proteins were transferred to PVDF membranes (LC2002, Invitrogen, CA) to perform western blots. Briefly, membranes were blocked with 2% BSA and 0.1% Triton-X 100 in PBS. Two primary antibodies were used: mouse monoclonal IgG, anti human laminin γ1 [laminin B2 chain] (1 μg/ml, B1920, Chemicon, CA) and mouse monoclonal IgG, anti human collagen IV [7S domain] (2 μg/ml, MAB3326, Chemicon, CA). A secondary antibody, goat polyclonal anti-mouse IgG-HRP conjugated (1:5000 dilution, sc-2302, Santa Cruz Biotechnology, CA) was used for detection by chemiluminescence (sc-2048, Santa Cruz Biotechnology, CA). Protein bands were visualized by exposure to an X-ray film (Biomax Film, Kodak, N.Y.).

[7] = tested on: Liver progenitor cells; conditions: encapsulated cells; cited from earlier work

Increased viscosity by visual inspection [1]: Increased viscosity was observed
Secondary structure (CD) [2]: β-sheet
increase of both moduli (G′, G″) upon addition of salts ([3]; PBS added, 10 minutes gelation): ≈ 10 fold
storage modulus G′ ([3]; after addition of PBS, dynamic frequency sweep, strain 0.01, 2.9 mM peptide): 2.5×10^3 Pa
Compound: CC(=O)N[C@@H](CCCNC(=N)N)C(=O)N[C@@H](C)C(=O)N[C@@H](CC(=O)O)C(=O)N[C@@H](C)C(=O)N[C@@H](CCCNC(=N)N)C(=O)N[C@@H](C)C(=O)N[C@@H](CC(=O)O)C(=O)N[C@@H](C)C(=O)N[C@@H](CCCNC(=N)N)C(=O)N[C@@H](C)C(=O)N[C@@H](CC(=O)O)C(=O)N[C@@H](C)C(=O)N[C@@H](CCCNC(=N)N)C(=O)N[C@@H](C)C(=O)N[C@@H](CC(=O)O)C(=O)N[C@@H](C)C(N)=O [RAD16-I, AcN-(RADA)4-CONH2]
HAEC attachment to the surface [4]: ~100%
nitric oxide (NO) release by HAEC [5]: promote NO release
laminin 1 and collagen IV deposition by HAEC [6]: significant enhancement of laminin 1 and collagen IV deposition
hepatocyte marker expression [7]: expressed markers indicative of hepatocyte phenotype
